As usually defined, the IC50 is the point on the concentration scale where inhibition reaches its midpoint. Low readings indicate greater potency, high ones weaker potency.

IC50 data for 36 compounds are collected here from ChEMBL document CHEMBL3785027 (Eur J Med Chem, 2016).

Format in all cases: functional, cell-based
Assay [1] is described as follows: Cytotoxicity against human KBVIN cells after 72 hrs by sulforhodamine B colorimetric assay.
The subject of a further assay is A549. Description: Cytotoxicity against human A549 cells after 72 hrs by sulforhodamine B colorimetric assay. To be noted: A549, 72 h. (In general: In SRB staining, fixed cells bind dye roughly in proportion to their protein.)
The next assay concerns KB. Description: Cytotoxicity against human KB cells after 72 hrs by sulforhodamine B colorimetric assay.

In the case of `CC[C@@]1(OC(=O)CN/C(Cc2ccc(OC)cc2)=N/S(=O)(=O)c2ccc(C)cc2)C(=O)OCc2c1cc1n(c2=O)Cc2cc3ccccc3nc2-1`, the half-maximal inhibitory concentration (IC50) in assay [1] was found to be 0.0263 µM.

With `CCc1c2c(nc3ccc(O)cc13)-c1cc3c(c(=O)n1C2)COC(=O)[C@@]3(CC)OC(=O)CN/C(Cc1ccc(OC)cc1)=N/S(=O)(=O)c1ccc(C)cc1`, the IC50 worked out at 0.0218 µM in the assay with A549, 0.0282 µM in assay [1] and 0.0045 µM with KB.

As to `CC[C@@]1(OC(=O)CN/C(Cc2ccc(OC)cc2)=N/S(=O)(=O)c2ccc(Cl)cc2)C(=O)OCc2c1cc1n(c2=O)Cc2cc3ccccc3nc2-1`, the IC50 in the assay with A549 amounted to 0.0165 µM; in assay [1], 0.0248 µM; in the assay with KB, 0.073 µM.

As for `CC[C@@]1(OC(=O)CCN/C(Cc2ccc(OC)cc2)=N\S(=O)(=O)c2ccc(C)cc2)C(=O)OCc2c1cc1n(c2=O)Cc2cc3ccccc3nc2-1`, the figures for the IC50 (in the assay with A549; in assay [1]; in the assay on KB) were 0.0889 µM, 0.527 µM and 0.622 µM, respectively.

Turning to `CC[C@@]1(OC(=O)CN/C(Cc2ccc(OC)cc2)=N/S(=O)(=O)c2ccc(C)cc2)C(=O)OCc2c1cc1n(c2=O)Cc2cc3c([N+](=O)[O-])cccc3nc2-1`, the IC50 in the assay on A549 was 6.27 µM; in assay [1], 4.58 µM; in the assay on KB, 7.04 µM.

As for `CC[C@@]1(OC(=O)CN/C(Cc2ccc(OC)cc2)=N/S(=O)(=O)c2ccc(C)cc2)C(=O)OCc2c1cc1n(c2=S)Cc2cc3ccccc3nc2-1`, the IC50 in the assay with A549 is 0.14 µM; in assay [1] it was 0.159 µM; in the assay on KB, 0.233 µM.

Regarding `CC[C@@]1(OC(=O)CN/C(Cc2ccc(OC)cc2)=N/S(=O)(=O)CC)C(=O)OCc2c1cc1n(c2=O)Cc2cc3ccccc3nc2-1`, the figures for the IC50 (with A549; in assay [1]; in the assay with KB) were 0.0481 µM, 0.0786 µM and 0.0642 µM, respectively.

For `CC[C@@]1(OC(=O)CN/C(Cc2ccc(C)cc2)=N/S(=O)(=O)c2ccc(C)cc2)C(=O)OCc2c1cc1n(c2=O)Cc2cc3ccccc3nc2-1`, the IC50 in the assay on A549 was 0.0174 µM; in assay [1] it was 0.0275 µM; in the assay on KB it was 0.0739 µM.

Take `CC[C@@]1(OC(=O)CN/C(Cc2ccc(OC)cc2)=N/S(=O)(=O)c2cccnc2)C(=O)OCc2c1cc1n(c2=O)Cc2cc3ccccc3nc2-1`: the figures for the half-maximal inhibitory concentration (IC50) (in the assay with A549; in assay [1]; in the assay with KB) were 0.0765 µM, 0.123 µM and 0.0938 µM, respectively.

Turning to `CC[C@@](O)(C(=O)NCCN/C(Cc1ccc(OC)cc1)=N/S(=O)(=O)c1ccc(C)cc1)c1cc2n(c(=O)c1COC(C)=O)Cc1cc3ccccc3nc1-2`, the figures for the half-maximal inhibitory concentration (IC50) (in the assay with A549; in assay [1]; in the assay with KB) were 0.688 µM, 0.947 µM and 0.937 µM, respectively.

As for `CCc1c2c(nc3ccccc13)-c1cc3c(c(=O)n1C2)COC(=O)[C@@]3(CC)OC(=O)C(C)N/C(Cc1ccc(Cl)cc1)=N/S(=O)(=O)c1ccc(C)cc1` (stereo partly specified), the results for the IC50 (in the assay with A549; in assay [1]; in the assay on KB) were 0.0129 µM, 0.016 µM and 0.0133 µM, respectively.

In the case of `CC[C@@]1(OC(=O)CN/C(Cc2ccc(Cl)cc2)=N/S(=O)(=O)c2ccc(C)cc2)C(=O)OCc2c1cc1n(c2=O)Cc2cc3ccccc3nc2-1`, the figures for the IC50 (in the assay with A549; in assay [1]; with KB) were 0.0549 µM, 0.0648 µM and 0.1 µM, respectively.

`CCc1c2c(nc3ccccc13)-c1cc3c(c(=O)n1C2)COC(=O)[C@@]3(CC)OC(=O)CN/C(Cc1ccc(OC)cc1)=N/S(=O)(=O)c1ccc(C)cc1`: the IC50 was determined as 0.0068 µM in the assay with A549, 0.0101 µM in assay [1] and 0.0094 µM in the assay with KB.

Regarding `CC[C@@]1(OC(=O)CN/C(Cc2ccc(OC)cc2)=N/S(=O)(=O)c2ccc(C)cc2)C(=O)OCc2c1cc1n(c2=O)Cc2cc3cc(O)ccc3nc2-1`, the IC50 in the assay on A549 amounted to 0.064 µM; in assay [1] it was 0.101 µM; with KB, 0.0631 µM.

Consider `CC[C@@]1(OC(=O)CN/C(Cc2ccc(OC)cc2)=N/S(=O)(=O)c2ccc3ccccc3c2)C(=O)OCc2c1cc1n(c2=O)Cc2cc3ccccc3nc2-1`, for which the IC50 in the assay with A549 is 0.0162 µM; in assay [1] it was 0.0256 µM; with KB it was 0.0687 µM.

Take `CCc1c2c(nc3ccccc13)-c1cc3c(c(=O)n1C2)COC(=O)[C@@]3(CC)OC(=O)CN/C(Cc1ccc(OC)cc1)=N/S(C)(=O)=O`: the results for the concentration for half-maximal inhibition (IC50) (in the assay on A549; in assay [1]; in the assay with KB) were 0.0198 µM, 0.0258 µM and 0.0167 µM, respectively.

With `CCc1c(OP(=O)(O)OC)ccc2nc3c(cc12)Cn1c-3cc2c(c1=O)COC(=O)[C@@]2(CC)OC(=O)CN/C(Cc1ccc(OC)cc1)=N/S(=O)(=O)c1ccc(C)cc1`, the half-inhibitory concentration (IC50) came to 0.345 µM with A549, 0.305 µM in assay [1] and 0.141 µM in the assay with KB.

With `CC[C@@]1(OC(=O)CN/C(Cc2ccc(OC)cc2)=N/S(=O)(=O)N(C)C)C(=O)OCc2c1cc1n(c2=O)Cc2cc3ccccc3nc2-1`, the IC50 came to 0.0408 µM with A549, 0.0453 µM in assay [1] and 0.0665 µM with KB.

As to `CCCCS(=O)(=O)/N=C(\Cc1ccc(OC)cc1)NCC(=O)O[C@]1(CC)C(=O)OCc2c1cc1n(c2=O)Cc2cc3ccccc3nc2-1`, the IC50 with A549 was 0.0349 µM; in assay [1] it was 0.0435 µM; in the assay with KB it was 0.0542 µM.

In the case of `CC[C@@]1(OC(=O)CN/C(C[Si](C)(C)C)=N/S(=O)(=O)c2ccc(C)cc2)C(=O)OCc2c1cc1n(c2=O)Cc2cc3ccccc3nc2-1`, the results for the concentration for half-maximal inhibition (IC50) (in the assay on A549; in assay [1]; in the assay on KB) were 0.0302 µM, 0.0399 µM and 0.0578 µM, respectively.

As for `CC[C@@]1(OC(=O)CN/C(Cc2ccccc2)=N/S(=O)(=O)c2ccc(C)cc2)C(=O)OCc2c1cc1n(c2=O)Cc2cc3c([N+](=O)[O-])cccc3nc2-1`, the half-maximal inhibitory concentration (IC50) in the assay with A549 was 8.27 µM; in assay [1], 9.13 µM; in the assay on KB, 9.05 µM.

On to `CC[C@@]1(OC(=O)CN/C(Cc2ccc(OC)cc2)=N/S(=O)(=O)c2ccc(C)cc2)C(=O)OCc2c1cc1n(c2=O)Cc2cc3cccc([N+](=O)[O-])c3nc2-1`, for which the IC50 in the assay on A549 stood at 13.9 µM; in assay [1] it was 10.7 µM; in the assay with KB, 11.3 µM.

For the compound `CC[C@@]1(OC(=O)CCCN/C(Cc2ccc(OC)cc2)=N\S(=O)(=O)c2ccc(C)cc2)C(=O)OCc2c1cc1n(c2=O)Cc2cc3ccccc3nc2-1`, the IC50 was 0.448 µM in the assay with A549, 0.955 µM in assay [1] and 0.83 µM in the assay with KB.

Regarding `CC[C@@]1(OC(=O)CN/C(Cc2ccc(OC)cc2)=N/S(=O)(=O)c2ccc(C)cc2)C(=O)OCc2c1cc1n(c2=O)C(OC)c2cc3ccccc3nc2-1` (stereo partly specified), the 50% inhibitory concentration (IC50) with A549 came to 7.31 µM; in assay [1], 6.88 µM; in the assay with KB it was 7.56 µM.

For `CCc1c2c(nc3ccccc13)-c1cc3c(c(=O)n1C2)COC(=O)[C@@]3(CC)OC(=O)C(C)N/C(Cc1ccc(OC)cc1)=N/S(C)(=O)=O` (stereo partly specified), the half-maximal inhibitory concentration (IC50) was 0.061 µM in the assay on A549, 0.0982 µM in assay [1] and 0.0952 µM in the assay with KB.

With `CC[C@@]1(OC(=O)CN/C(Cc2ccc(OC)cc2)=N/S(C)(=O)=O)C(=O)OCc2c1cc1n(c2=O)Cc2cc3ccccc3nc2-1`, the IC50 with A549 turned out to be 0.054 µM; in assay [1] it was 0.0635 µM; in the assay on KB it was 0.105 µM.

In the case of `CCc1c2c(nc3ccccc13)-c1cc3c(c(=O)n1C2)COC(=O)[C@@]3(CC)OC(=O)C(C)N/C(Cc1ccc(OC)cc1)=N/S(=O)(=O)c1ccc(C)cc1` (stereo partly specified), the IC50 was found to be 0.016 µM in the assay with A549, 0.0227 µM in assay [1] and 0.0842 µM in the assay with KB.

On to `CC[C@@]1(OC(=O)C(C)N/C(Cc2ccc(OC)cc2)=N/S(=O)(=O)c2ccc(C)cc2)C(=O)OCc2c1cc1n(c2=S)Cc2cc3ccccc3nc2-1` (stereo partly specified), for which the IC50 amounted to 0.0869 µM in the assay on A549, 0.151 µM in assay [1] and 0.109 µM in the assay on KB.

For `CC[C@@]1(OC(=O)CN/C(Cc2ccc(OC)cc2)=N/S(=O)(=O)c2ccc(C)cc2)CC(=O)OCc2c1cc1n(c2=O)Cc2cc3ccccc3nc2-1`, the half-maximal inhibitory concentration (IC50) was 0.0836 µM in the assay on A549, 0.263 µM in assay [1] and 0.232 µM in the assay with KB.

Regarding `CCc1c2c(nc3ccccc13)-c1cc3c(c(=O)n1C2)COC(=O)[C@@]3(CC)OC(=O)CN/C(Cc1ccccc1)=N/S(=O)(=O)c1ccc(C)cc1`, the half-maximal inhibitory concentration (IC50) with A549 worked out at 0.0072 µM; in assay [1], 0.0185 µM; in the assay with KB, 0.0895 µM.

As for `CC[C@@]1(OC(=O)CN/C(Cc2ccc(OC)cc2)=N/S(=O)(=O)c2cccs2)C(=O)OCc2c1cc1n(c2=O)Cc2cc3ccccc3nc2-1`, the half-maximal inhibitory concentration (IC50) worked out at 0.0375 µM with A549, 0.0325 µM in assay [1] and 0.055 µM with KB.

For `CCc1c2c(nc3ccccc13)-c1cc3c(c(=O)n1C2)COC(=O)[C@@]3(CC)OC(=O)C(C)N/C(Cc1ccccc1)=N/S(=O)(=O)c1ccc(C)cc1` (stereo partly specified), the figures for the 50% inhibitory concentration (IC50) (in the assay on A549; in assay [1]; in the assay on KB) were 0.0102 µM, 0.0195 µM and 0.0836 µM, respectively.

`CC[C@@]1(OC(=O)CN/C(Cc2ccc(OC)cc2)=N/S(=O)(=O)c2ccc([N+](=O)[O-])cc2)C(=O)OCc2c1cc1n(c2=O)Cc2cc3ccccc3nc2-1`: the 50% inhibitory concentration (IC50) (in the assay on A549; in assay [1]; in the assay on KB) was 0.0149 µM throughout.

Consider `CC[C@@]1(OC(=O)CN/C(Cc2ccc(OC)cc2)=N/S(=O)(=O)c2ccc(F)cc2)C(=O)OCc2c1cc1n(c2=O)Cc2cc3ccccc3nc2-1`, for which the half-inhibitory concentration (IC50) was 0.0141 µM with A549, 0.0225 µM in assay [1] and 0.0169 µM in the assay on KB.

In the case of `CC[C@@]1(OC(=O)CN/C(Cc2ccc(OC)cc2)=N/S(=O)(=O)c2ccc(OC)cc2)C(=O)OCc2c1cc1n(c2=O)Cc2cc3ccccc3nc2-1`, the figures for the IC50 (in the assay with A549; in assay [1]; in the assay with KB) were 0.0319 µM, 0.0222 µM and 0.0516 µM, respectively.

On to `CCc1c2c(nc3ccc(OC(=O)N4CCC(N5CCCCC5)CC4)cc13)-c1cc3c(c(=O)n1C2)COC(=O)[C@]3(O)CC` [IRINOTECAN], for which the concentration for half-maximal inhibition (IC50) in the assay with A549 was 9.48 µM; in assay [1] it was more than 20 µM; with KB, 9.83 µM.
